From patent US20240189263A1, “DERIVATIZED C60 MOLECULES AND METHODS AND MATERIALS FOR USING DERIVATIZED C60 MOLECULES TO REDUCE RADIATION INJURY” (Mayo Foundation for Medical Education and Research, priority 2021, published 2024)

What was measured:
Type in all cases: cell-based
[1] = tested on: N2A cells; assay: MTS cytotoxicity assay, N2A; conditions: 1-1000 μM, 24, 48 or 72 hours
Protocol: (§1) Cytotoxicity of C60-ser was determined by an MTS (3-(4,5-dimethylthiazol-2-yl)-5-(3-carboxymethoxyphenyl)-2-(4-sulfophenyl)-2H-tetrazolim) colorimetric assay on four different cell lines, each representing a different cell type. Specifically, HepG2 (liver epithelium), HUVEC (endothelial cells), N2A (neuroblastoma cells representative of normal neurons), and NIH3T3 (fibroblasts) were analyzed. The cells were seed in a 96-well tissue culture polystyrene plate at different seeding concentrations based on the cell's doubling time. HUVEC cells were seeded at 10,000 cells/well (24 hour experiments), 8,000 cells/well (48 hour experiments), and 5,000 cells/well (72 hour experiments), and incubated for 24 hours in a humidified atmosphere with 5% C02 at 37° C. […] After incubation with MTS, the optical density (OD) of the resulting formazan solution was read at 490 nm using a microplate reader (Biotek Cytation 5 cell Imaging Multi-Mode reader, Winooski, VT). The cell viability was obtained by normalizing the absorbance of the sample with that of the control wells containing untreated cells. The cell viability was expressed as a percentage, assigning the viability of non-treated cells as 100%. […]

[2] = tested on: NIH3T3 cells; assay: MTS cytotoxicity assay, NIH3T3
Protocol: as §1

[3] = tested on: HepG2 cells; assay: MTS cytotoxicity assay, HepG2; conditions: HepG2, 1-1000 μM, 24, 48 or 72 hours
Protocol: as §1

[4] = tested on: HepG2 cells; assay: DNA damage, γH2AX foci immunofluorescence, HepG2
Protocol: To test the ability of C60-ser to protect against radiation injury, the level of DNA damage in response to radiation was analyzed by measuring γH2AX. The H2AX protein becomes phosphorylated into γH2AX as a result of DNA double strand breaks. This allows for the visualization and quantification of double strand break foci through immunofluorescence analysis. Cells were plated on 8 chamber slides and incubated overnight before C60-ser treatment. Three sets of slides per cell line (to be irradiated with 0, 0.5, and 1 Gy) were prepared, with the top 4 rows used as a control and the bottom 4 rows incubated with 100 μM C60-ser. Cells were incubated with C60-ser for 2 hours before irradiation with a clinical Proteus One proton machine (Ion Beam Applications, Louvain-la-Neuve, Belgium). A 230 MeV mono-energetic unmodulated broad beam of large field size that encompassed all slides containing the cells was used to deliver the 0.5 and 1 Gy doses. White solid water slabs (IBA Dosimetry, Germany) provided the necessary phantom material to place the cells at the desired 8 cm depth with an LET of approximately 1.7 keV/μm. After irradiation, cells were incubated at 37° C. with 5% CO2 for 30 minutes before washing and fixing the cells with 1% formaldehyde. The cells were permeabilized with 1% NP-40 and incubated with 5% BSA to block unspecific antibody bonding. The cells were then incubated with γH2AX primary antibody followed by a secondary antibody. Mounting media containing DAPI was used before applying cover slips and sealing the samples. Cells were imaged on an Olympus IX71 trinocular inverted fluorescence phase contrast microscope with a 40× objective. The resulting images were analyzed by ImageJ, and the foci were counted.

[5] = tested on: HepG2 cells; assay: Seahorse mitochondrial respiration (oxygen consumption rate), HepG2; conditions: HepG2, pretreated 2 hours before 1 Gy 230 MeV proton
Protocol: The oxygen consumption rates were assessed in N2A, HUVEC, NIH3T3, and HepG2 cell lines with a Seahorse XFe96 (Agilent Technologies, Santa Clara, CA, USA). Cells were treated with 0 and 1 Gy of 230 MeV proton irradiation. The control plates were run at about the same time post plating. Each cell line was optimized prior to these experiments, and data was presented normalized to cell number plated. The standard mitochondrial stress test was performed using serial injections of oligomycin (1.5 μM), carbonyl cyanide p-(trifluoromethoxy)phenylhydrazone (FCCP, 1 μM), and rotenone/antimycin A mixture (0.5 μM). After injection of oligomycin, which inhibits ATP synthase (complex V), there was a drop in electron flow through the electron transport chain (ETC) and a resultant drop in oxygen consumption rate (OCR) of the cells. Injection of FCCP collapsed the proton gradient and allowed for uninhibited electron flow through the ETC supercomplexes. […] The reserve respiratory capacity was calculated by subtracting the basal respiratory capacity from the maximal respiratory capacity.

[6] = tested on: HCT116 colorectal cancer cells; assay: Clonogenic assay of irradiated HCT116 colorectal cancer cells; conditions: HCT116, 100 μM 2 hours, 0-6 Gy
Protocol: A clonogenic assay of HCT116 colorectal cancer cells was conducted. 2×10^6 cells were treated with 100 μM C60-ser for 2 hours and exposed to 0-6 Gy of radiation.

## O=C(NC(CO)CO)C1(C(=O)NC(CO)CO)C23c4c5c6c7c8c4-c4c2c2c9c%10c4C4%11c%12c-%10c%10c%13c%14c%12-c%12c(c-7c7c%15c%12C%14%12C(C(=O)NC(CO)CO)(C(=O)NC(CO)CO)C%12%14c%12c%16c%17c%18c(c%12-%15)C7%12C(C(=O)NC(CO)CO)(C(=O)NC(CO)CO)C6%12c6c-5c5c7c(c6-%18)C%176C(C(=O)NC(CO)CO)(C(=O)NC(CO)CO)C6%12c6c-7c(c-2c2c6-c6c%12c-%16c%14c-%13c6C%106C(C(=O)NC(CO)CO)(C(=O)NC(CO)CO)C926)C513)C84C%11(C(=O)NC(CO)CO)C(=O)NC(CO)CO (stereo not drawn) [C60-ser, C60-serinol]
[1]
  percent viability: did not result in a significant decrease in viability
[2]; NIH3T3, 1000 μM
  percent viability at the highest dose: downward trend
[2]; NIH3T3, 1-1000 μM, 24, 48 or 72 hours
  percent viability: did not result in a significant decrease in viability
[3]
  percent viability: did not result in a significant decrease in viability
[4]; HepG2, 100 μM 2 hours before 0.5 Gy proton radiation
  γH2AX foci vs control: trend towards reduction in total foci formed, but it was not statistically significant
[4]; HepG2, 100 μM 2 hours before 1 Gy proton radiation
  γH2AX foci vs control: significant decrease in the number of foci
[4]; HepG2, 100 μM 2 hours, absence of radiation
  γH2AX foci vs control: no significant different in foci expression
[5]
  radiation-induced increase in respiratory capacity: dampened and, in some cases, reduced to normal or slightly below normal levels
[6]
  surviving fraction of cells vs control: no difference in the surviving fraction of cells
